{
  "source": "patent US9751858B2",
  "about": "“3-heteroaroylamino-propionic acid derivatives and their use as pharmaceuticals” (SANOFI, priority 2011, dated 2017)",
  "key": {"platelet aggregation": {"tested_on": "platelet aggregation", "details": "hypertensive animals; H. Ostrowska et al., J. Cardiovasc. Pharmacol. 45 (2005); cited from earlier work"}, "[1]": {"target": "T1, Recombinant human cathepsin A (Homo sapiens, UniProt P10619)", "T1 construct": "Recombinant human cathepsin A (residues 29-480, with a C-terminal 10-His tag); 10-His (C); purchased R&D Systems 1049-SE", "T1 sequence (P10619 29-326 limits assumed)": "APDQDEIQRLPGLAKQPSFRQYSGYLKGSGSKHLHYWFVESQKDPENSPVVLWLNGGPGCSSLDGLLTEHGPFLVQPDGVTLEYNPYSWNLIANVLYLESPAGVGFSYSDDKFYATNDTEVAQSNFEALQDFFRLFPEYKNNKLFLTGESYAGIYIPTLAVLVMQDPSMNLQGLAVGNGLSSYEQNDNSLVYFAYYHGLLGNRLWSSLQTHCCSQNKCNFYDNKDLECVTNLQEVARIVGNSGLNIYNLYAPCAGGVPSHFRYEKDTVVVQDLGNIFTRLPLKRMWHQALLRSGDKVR", "T1 sequence (P10619 327-480 limits assumed)": "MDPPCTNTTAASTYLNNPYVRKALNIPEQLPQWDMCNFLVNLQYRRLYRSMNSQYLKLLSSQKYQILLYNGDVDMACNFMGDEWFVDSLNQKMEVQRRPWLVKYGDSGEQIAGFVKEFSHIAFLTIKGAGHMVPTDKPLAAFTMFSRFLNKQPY", "test": "Cathepsin A inhibitory activity", "type": "biochemical", "details": "activated recombinant human cathepsin A 833 ng/ml, Bodipy FL-labeled bradykinin 2 μM, pH 5.5, 15 min room temperature", "outline": "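Cathepsin A activated by cathepsin L (15 min, 37 °C, pH 6.0), then preincubated 15 min at room temperature with compound in 25 mM MES pH 5.5, 5 mM DTT. Bodipy FL-bradykinin cleavage ran 15 min at room temperature; substrate and product separated by microfluidic capillary electrophoresis, turnover from peak areas.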"}},
  "note": "pIC50: −log10 of the molar value.",
  "data": [
    {"compound": "CC[C@@H](C)[C@@H](O)[C@H](C)C(=O)[C@H](C)/C=C(\\C)C[C@H](C)[C@@H]1OC(=O)[C@H]1CC", "note": "[ebelactone B]", "values": [
      {"measurement": "platelet aggregation", "setting": "platelet aggregation", "value": "suppresses platelet aggregation"}
    ]},
    {"compound": "CCCC1CCCCN1C(=O)c1cc(C(=O)N[C@@H](CC(=O)O)c2ccc(C)cc2)nn1CC", "note": "(stereo partly drawn) [Example 115, (S)-3-{[1-Ethyl-5-(2-propyl-piperidine-1-carbonyl)-1H-pyrazole-3-carbonyl]-amino}-3-p-tolyl-propionic acid]", "values": [
      {"measurement": "pIC50", "setting": "[1]", "value": 5.60}
    ]},
    {"compound": "Cc1ccccc1[C@H](CC(=O)O)NC(=O)c1c[nH]c(-c2ccccc2)n1", "note": "[Example 1, (S)-3-[(2-Phenyl-1H-imidazole-4-carbonyl)-amino]-3-o-tolyl-propionic acid]", "values": [
      {"measurement": "pIC50", "setting": "[1]", "value": 6.67}
    ]},
    {"compound": "Cc1ccc([C@H](CC(=O)O)NC(=O)c2nc(C)n(-c3ccccc3Cl)n2)cc1", "note": "[Example 55, (S)-3-{[1-(2-Chloro-phenyl)-5-methyl-1H-[1,2,4]triazole-3-carbonyl]-amino}-3-p-tolyl-propionic acid]", "values": [
      {"measurement": "pIC50", "setting": "[1]", "value": 6.13}
    ]},
    {"compound": "O=C(O)C[C@H](NC(=O)CCc1nc(-c2ccccc2F)no1)c1cccc(C(F)(F)F)c1", "note": "[Example 113, (S)-3-{3-[3-(2-Fluoro-phenyl)-[1,2,4]oxadiazol-5-yl]-propionylamino}-3-(3-trifluoromethyl-phenyl)-propionic acid]", "values": [
      {"measurement": "pIC50", "setting": "[1]", "value": "< 5.00"}
    ]},
    {"compound": "Cc1oc(-c2ccccc2F)nc1C(=O)N[C@@H](CC(=O)O)c1cccc(Cl)c1", "note": "[Example 61, (S)-3-(3-Chloro-phenyl)-3-{[2-(2-fluoro-phenyl)-5-methyl-oxazole-4-carbonyl]-amino}-propionic acid]", "values": [
      {"measurement": "pIC50", "setting": "[1]", "value": 6.72}
    ]},
    {"compound": "CC(C)c1oc(-c2ccccc2)nc1C(=O)N[C@@H](CC(=O)O)c1cccc(Cl)c1Cl", "note": "[Example 103, (S)-3-(2,3-Dichloro-phenyl)-3-[(5-isopropyl-2-phenyl-oxazole-4-carbonyl)-amino]-propionic acid]", "values": [
      {"measurement": "pIC50", "setting": "[1]", "value": 6.22}
    ]},
    {"compound": "Cc1ccccc1[C@H](CC(=O)O)NC(=O)c1nc(C(C)C)n(-c2ccccc2Cl)n1", "note": "[Example 87, (S)-3-{[1-(2-Chloro-phenyl)-5-isopropyl-1H-[1,2,4]triazole-3-carbonyl]-amino}-3-o-tolyl-propionic acid]", "values": [
      {"measurement": "pIC50", "setting": "[1]", "value": 7.02}
    ]},
    {"compound": "Cc1ccccc1[C@H](CC(=O)O)NC(=O)c1nc(-c2ccccc2)oc1C", "note": "[Example 5, (S)-3-[(5-Methyl-2-phenyl-oxazole-4-carbonyl)-amino]-3-o-tolyl-propionic acid]", "values": [
      {"measurement": "pIC50", "setting": "[1]", "value": 6.60}
    ]},
    {"compound": "CCCC1CCCCN1C(=O)c1cc(C(=O)N[C@@H](CC(=O)O)c2ccccc2C)nn1CC", "note": "(stereo partly drawn) [Example 114, (S)-3-{[1-Ethyl-5-(2-propyl-piperidine-1-carbonyl)-1H-pyrazole-3-carbonyl]-amino}-3-o-tolyl-propionic acid]", "values": [
      {"measurement": "pIC50", "setting": "[1]", "value": 6.09}
    ]},
    {"compound": "Cc1oc(-c2ccccc2)nc1C(=O)N[C@@H](CC(=O)O)c1ccc(F)cc1", "note": "[Example 9, (S)-3-(4-Fluoro-phenyl)-3-[(5-methyl-2-phenyl-oxazole-4-carbonyl)-amino]-propionic acid]", "values": [
      {"measurement": "pIC50", "setting": "[1]", "value": 5.25}
    ]},
    {"compound": "Cc1oc(-c2ccccc2F)nc1C(=O)N[C@@H](CC(=O)O)c1ccccc1F", "note": "[Example 35, (S)-3-(2-Fluoro-phenyl)-3-{[2-(2-fluoro-phenyl)-5-methyl-oxazole-4-carbonyl]-amino}-propionic acid]", "values": [
      {"measurement": "pIC50", "setting": "[1]", "value": 5.29}
    ]},
    {"compound": "Cc1ccc([C@H](CC(=O)O)NC(=O)c2nc(C3CC3)n(-c3ccccc3Cl)n2)cc1", "note": "[Example 83, (S)-3-{[1-(2-Chloro-phenyl)-5-cyclopropyl-1H-[1,2,4]triazole-3-carbonyl]-amino}-3-p-tolyl-propionic acid]", "values": [
      {"measurement": "pIC50", "setting": "[1]", "value": "< 5.00"}
    ]},
    {"compound": "C[C@@](CC(=O)O)(NC(=O)CCc1nc(-c2ccccc2F)no1)c1ccccc1", "note": "[Example 51, (S)-3-{3-[3-(2-Fluoro-phenyl)-[1,2,4]oxadiazol-5-yl]-propionylamino}-3-phenyl-butyric acid]", "values": [
      {"measurement": "pIC50", "setting": "[1]", "value": "< 5.00"}
    ]},
    {"compound": "C[C@@](CC(=O)O)(NC(=O)c1noc(-c2ccccc2F)n1)c1ccccc1", "note": "[Example 14, (S)-3-{[5-(2-Fluoro-phenyl)-[1,2,4]oxadiazole-3-carbonyl]-amino}-3-phenyl-butyric acid]", "values": [
      {"measurement": "pIC50", "setting": "[1]", "value": 4.76}
    ]},
    {"compound": "Cc1cccc([C@H](CC(=O)O)NC(=O)c2nc(-c3ccccc3F)oc2C)c1", "note": "[Example 27, (S)-3-{[2-(2-Fluoro-phenyl)-5-methyl-oxazole-4-carbonyl]-amino}-3-m-tolyl-propionic acid]", "values": [
      {"measurement": "pIC50", "setting": "[1]", "value": 5.46}
    ]},
    {"compound": "O=C(N[C@@H](Cc1ccc(Cl)cc1)C(=O)O)c1noc(-c2cnccc2C(F)(F)F)n1", "note": "[Example 99, (S)-3-(4-Chloro-phenyl)-2-{[5-(4-trifluoromethyl-pyridin-3-yl)-[1,2,4]oxadiazole-3-carbonyl]-amino}-propionic acid]", "values": [
      {"measurement": "pIC50", "setting": "[1]", "value": "< 5.00"}
    ]},
    {"compound": "O=C(O)C[C@@H](Cc1ccccc1)NC(=O)CCc1nc(-c2ccccc2F)no1", "note": "[Example 49, (R)-3-{3-[3-(2-Fluoro-phenyl)-[1,2,4]oxadiazol-5-yl]-propionylamino}-4-phenyl-butyric acid]", "values": [
      {"measurement": "pIC50", "setting": "[1]", "value": "< 5.00"}
    ]},
    {"compound": "Cc1ccc([C@H](CC(=O)O)NC(=O)c2noc(-c3ccccc3F)n2)cc1", "note": "[Example 12, (S)-3-{[5-(2-Fluoro-phenyl)-[1,2,4]oxadiazole-3-carbonyl]-amino}-3-p-tolyl-propionic acid]", "values": [
      {"measurement": "pIC50", "setting": "[1]", "value": "< 5.00"}
    ]}
  ]
}
